In ChEMBL document CHEMBL1201862, “PubChem BioAssay data set” (2004):
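Following 48 hours of exposure in 96-well plates, responses at five concentrations were used to interpolate endpoints linearly. GI50 = concentration required for 50% inhibition of growth.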 Activity calls are given as the source filed them. Cut-off read from the data, not from the text of the source: active = GI50 up to about 1.1 µM and inactive = higher. Bridge positions count the residues as written; N and C are the ends. Square brackets hold non-standard residues; d marks the D form. Peptide text beside a SMILES is read from it. * marks the point of attachment. Cbz = O=C(OCc1ccccc1)*; Dab = NCC[CH](N)C(=O)O; Bn = c1ccc(C*)cc1

Columns and labels:
Assay in all cases: inhibition of tumour cell growth, NCI panel, 48 h
ACHN = test system: ACHN
HL-60 = test system: HL-60
HOP-62 = test system: HOP-62
LOX IMVI = test system: LOX IMVI
MCF7 = test system: MCF7
MDA-N = test system: MDA-N
NCI-H226 = test system: NCI-H226
NCI-H23 = test system: NCI-H23
NCI-H460 = test system: NCI-H460
NCI/ADR-RES = test system: NCI/ADR-RES
OVCAR-5 = test system: OVCAR-5
OVCAR-8 = test system: OVCAR-8
RPMI-8226 = test system: RPMI-8226
SF-268 = test system: SF-268
SN12C = test system: SN12C
T47D = test system: T47D
TK-10 = test system: TK-10
UACC-257 = test system: UACC-257
UACC-62 = test system: UACC-62
SK-MEL-2 = test system: SK-MEL-2

Measured: GI50

CC(C)CC1NC(=O)C(Cc2ccccc2)NC(=O)C(Cc2ccccc2)NC(=O)C(NC(=O)C(Cc2ccc(OCc3ccccc3)cc2)NC(=O)OCc2ccccc2)CCNC1=O (configuration not stated) (Cbz-Y(Bn)[Dab]FFL; lactam 2-C; configuration not given here)
inactive: ACHN > 100 µM | HL-60 > 100 µM | HOP-62 > 100 µM | LOX IMVI > 100 µM | MCF7 38.8 µM | MDA-N 36.1 µM | NCI-H226 > 100 µM | NCI-H23 87.1 µM | NCI-H460 35.1 µM | NCI/ADR-RES > 100 µM | OVCAR-5 > 100 µM | OVCAR-8 > 100 µM | RPMI-8226 > 100 µM | SF-268 > 100 µM | SN12C > 100 µM | T47D 20.4 µM | TK-10 32.6 µM | UACC-257 32.1 µM | UACC-62 8.47 µM

Cn1c(=O)c2c(ncn2CCSS(=O)(=O)O)n(C)c1=O
inactive: ACHN > 100 µM | HOP-62 86.9 µM | MCF7 > 100 µM | MDA-N > 100 µM | NCI-H226 > 100 µM | NCI-H23 > 100 µM | NCI-H460 66.4 µM | NCI/ADR-RES > 100 µM | OVCAR-5 > 100 µM | OVCAR-8 > 100 µM | RPMI-8226 > 100 µM | SF-268 > 100 µM | SK-MEL-2 55.3 µM | SN12C > 100 µM | T47D > 100 µM | TK-10 > 100 µM | UACC-257 > 100 µM | UACC-62 53.2 µM

CCCCCCCCCCCC(=O)OCC(O)CO (configuration not stated) [GLYCEROL MONOLAURATE]
inactive: ACHN > 100 µM | HL-60 12.9 µM | HOP-62 > 100 µM | LOX IMVI 48.1 µM | MCF7 > 100 µM | MDA-N 88.9 µM | NCI-H226 > 100 µM | NCI-H23 67.3 µM | NCI-H460 80.5 µM | NCI/ADR-RES > 100 µM | OVCAR-5 > 100 µM | OVCAR-8 > 100 µM | SF-268 > 100 µM | SK-MEL-2 > 100 µM | SN12C > 100 µM | T47D 69.3 µM | TK-10 > 100 µM | UACC-257 > 100 µM | UACC-62 > 100 µM

COC(=O)C1=Cc2cc(OC)c(O)cc2[C@@H](c2ccc(O)c(OC)c2)[C@@H]1C(=O)OC
inactive: ACHN > 100 µM | HL-60 > 100 µM | HOP-62 > 100 µM | LOX IMVI > 100 µM | MCF7 > 100 µM | MDA-N 36.9 µM | NCI-H226 > 100 µM | NCI-H23 > 100 µM | NCI-H460 > 100 µM | NCI/ADR-RES > 100 µM | OVCAR-5 > 100 µM | OVCAR-8 > 100 µM | RPMI-8226 > 100 µM | SF-268 > 100 µM | SN12C > 100 µM | T47D 60.5 µM | UACC-257 > 100 µM

COc1ccc(N2C=Nn3c(nc4sc(C)c(C)c4c3=O)C2)cc1
inactive: ACHN > 100 µM | HOP-62 28.6 µM | LOX IMVI > 100 µM | MCF7 > 100 µM | MDA-N > 100 µM | NCI-H226 > 100 µM | NCI-H23 > 100 µM | NCI-H460 > 100 µM | NCI/ADR-RES > 100 µM | OVCAR-5 > 100 µM | OVCAR-8 > 100 µM | RPMI-8226 > 100 µM | SF-268 > 100 µM | SK-MEL-2 > 100 µM | SN12C > 100 µM | T47D > 100 µM | TK-10 > 100 µM | UACC-257 > 100 µM | UACC-62 > 100 µM

C=C(CC[C@@H](C(=O)O)[C@H]1[C@H](O)C[C@@]2(C)C3=CC[C@@H](C(=C)C)[C@](C)(CCC(=O)O)C3=CC[C@]12C)C(C)C [PORICOIC ACID A]
inactive: ACHN 17.6 µM | HL-60 15.9 µM | LOX IMVI 19.3 µM | MCF7 17.1 µM | MDA-N 16.9 µM | NCI-H226 19.7 µM | NCI-H23 16.9 µM | NCI-H460 18.2 µM | NCI/ADR-RES 19.7 µM | OVCAR-5 16.5 µM | OVCAR-8 19.5 µM | SK-MEL-2 18.5 µM | SN12C 16.7 µM | T47D 23.8 µM | TK-10 17.8 µM | UACC-257 16.4 µM | UACC-62 15.3 µM

NNC1=Nc2ccc(Cl)cc2C(=S)N2CSCC12 (configuration not stated)
inactive: ACHN > 100 µM | HOP-62 > 100 µM | LOX IMVI > 100 µM | MCF7 > 100 µM | MDA-N > 100 µM | NCI-H226 > 100 µM | NCI-H460 > 100 µM | NCI/ADR-RES > 100 µM | OVCAR-5 > 100 µM | OVCAR-8 > 100 µM | RPMI-8226 > 100 µM | SF-268 > 100 µM | SK-MEL-2 > 100 µM | SN12C > 100 µM | T47D > 100 µM | TK-10 > 100 µM | UACC-257 > 100 µM | UACC-62 > 100 µM

O=C(CCN1CCOCC1)c1ccc(Oc2ccc(F)cc2)cc1
inactive: ACHN 17.9 µM | HL-60 35.5 µM | HOP-62 50.2 µM | LOX IMVI 21.8 µM | MCF7 18.7 µM | MDA-N 23.8 µM | NCI-H226 26 µM | NCI-H23 26.7 µM | NCI-H460 > 100 µM | NCI/ADR-RES 26.9 µM | OVCAR-5 24.2 µM | OVCAR-8 19.4 µM | SK-MEL-2 23.6 µM | SN12C 30.9 µM | T47D 18.9 µM | TK-10 17.9 µM | UACC-257 17.7 µM | UACC-62 18.6 µM

CC1(C)[C@@H]2CC[C@]1(C)[C@H](OC(=O)CSC#N)C2
inactive: ACHN > 100 µM | HOP-62 > 100 µM | LOX IMVI 35.2 µM | MCF7 65.9 µM | MDA-N > 100 µM | NCI-H226 > 100 µM | NCI-H23 > 100 µM | NCI-H460 > 100 µM | NCI/ADR-RES > 100 µM | OVCAR-5 > 100 µM | OVCAR-8 34.2 µM | SF-268 > 100 µM | SK-MEL-2 > 100 µM | SN12C > 100 µM | T47D > 100 µM | TK-10 > 100 µM | UACC-257 > 100 µM | UACC-62 > 100 µM

COC(=O)[C@@H](NC1(c2ccccc2)c2ccccc2-c2ccccc21)[C@H](OC(=O)[C@H]1CCCN1S(=O)(=O)c1ccccc1)C(=O)OC
inactive: ACHN > 100 µM | HL-60 > 100 µM | HOP-62 > 100 µM | LOX IMVI > 100 µM | MCF7 > 100 µM | MDA-N 72.9 µM | NCI-H226 > 100 µM | NCI-H23 > 100 µM | NCI-H460 > 100 µM | NCI/ADR-RES > 100 µM | OVCAR-5 > 100 µM | OVCAR-8 > 100 µM | SF-268 > 100 µM | SK-MEL-2 39.8 µM | SN12C > 100 µM | T47D > 100 µM | TK-10 > 100 µM | UACC-257 > 100 µM | UACC-62 > 100 µM
